Test results from US8486945B2, “Heterocyclic inhibitors of an Hh-signal cascade, medicinal compositions based thereon and methods for treating diseases caused by the aberrant activity of an Hh-signal system” (priority 2007, dated 2013).
Where two headings read alike, the source gives them in different places. Each block holds one compound with its values, some of them ahead of it.

What was measured:
Hh-signalling cascade = test: Inhibition of SHh-induced alkaline phosphatase in C3H10T1/2 cells (Hh-signalling cascade inhibition); format: cell-based; conditions: Mus musculus, C3H 10T1/2, half maximal inhibition of SHh (0.3 μg/ml) stimulation of cell alkaline phosphatase
Summary of the method: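 C3H10T1/2 cells preincubated 30 min with compound (screen at 10 μM; IC50 from triplicate dilution series), then stimulated with 0.3 μg/ml recombinant SHh for 3 days at 37 °C. Alkaline phosphatase measured by CSPD luminescence in 0.2% Triton-X100 lysates; IC50 = half-maximal inhibition of SHh-induced activity.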

[1] = Pharmacokinetic investigation in mice (PO and IP); format: in vivo, mice of BALB/c line; conditions: BALB/c, mouse, plasma; for half-life: read-out: T½
Experimental: Pharmacokinetic investigations were carried out on mice of BALB/c line. All animals were divided into three groups in a random manner: two experimental groups were used for pharmacokinetic analyses at peroral (PO) and intraperitoneal (IP) ways of substance introduction in various doses, and the control group for getting intact blood plasma.
Blood samples were taken by decapitation of animals before introduction of medicament (control samples), and by decapitation in 5, 15, 30, 60, 120 and 240 minutes after introduction of medicament. Three mice were used for each time interval point.
Analysis of samples comprising compounds of the general formulas I-VIII was carried out by Chromato-Mass-Spectrometry method. The data were analysed by means of software package WinNonLin (Pharsight, CIIIA).
Oral bioavailability % F of compounds of the general formulas I-VIII was calculated on the basis of experimental results according to the following equation: % F=[AUC0→t,(PO)/AUC0→t,(IP)]×100%.

[2] = Maximum tolerated dose, intraperitoneal once daily for 5 days; conditions: mouse, in vivo, ip, male SHK mice
Experimental: Maximum tolerated dose of compounds was determined in tests on male mice of SHK line by intraperitoneal once daily introduction of the compounds in doses from 30 to 300 mg/kg during 5 days. 8 Mice were used in each group. Weight of mice and also animals' mortality were registered. […] According to the classification of chemical compounds toxicity the investigated compounds may be referred to low-toxic substances.

[3] = tested on: transcription factor Gli1; test: Suppression of transcription factor Gli1 induction in Panc1 cell culture; format: cell-based, human; conditions: 20 mkM, 72 hours, Panc1 cells
Experimental: Examples of suppression of the transcription factor Gli1 induction in human's tumor cell culture Panc1 by compounds of the general formulas I-VIII are presented in FIG. 2. […] This effect could be enhanced at combined action of the tested compound and kinas inhibitor (oncolitic Iressa). For caning out the experiments the tumour cell culture Panc1 was cultivated for 72 hours in the presence of 20 mkM of tested compounds.
Measurements of expression level Gli1 were carried out by determination of HGli mRNA amount according to the method [Lauth M., Bergstrom A., Shimokawa T., Toftgard R. Inhibition of GLI-mediated transcription and tumor cell growth by small-molecule antagonists. PNAS. 2007, 104(20): 8455-8460].

[4] = Pharmacokinetic investigation in mice (PO and IP); format: in vivo, mice of BALB/c line; conditions: BALB/c, mouse, plasma, read-out: % F (PO/IV)
[5] = tested on: human's pancreatic carcinoma Panc1; test: Antitumour activity in Panc1 xenograft mice model; format: in vivo, mice Balb-c/nude; conditions: intraperitoneally 100 m mg/kg, daily during 21 days
Experimental: Example of antitumour activity of compound III-1029 towards human's pancreatic carcinoma model Panc1, implanted to immunodeficient transgenic (naked) mice Balb-c/nude, is presented in FIG. 3. Mice of 8 weeks age which were implanted with pancreatic carcinoma by injection of 4×10^6 tumour cells were used in the experiments. Introduction of tested compound (peroral 50 mg/kg, daily during 14 days) was started in 7 days after transplantation of tumour (an average size of tumour was 30-60 mm^3). As a result of the tests it was shown that under the said way of introduction compound III-1029 suppresses tumour growth on 67% in comparison with the control group (mice with implanted tumour not treated with compound III-1029).
Example of antitumour activity of compounds III-1017 and III-1011 towards human's pancreatic carcinoma Panc1, implanted to immunodeficient transgenic (naked) mice Balb-c/nude, is presented in FIG. 4. Mice of 8 weeks age which were implanted with pancreatic carcinoma by injection of 4×10^7 tumour cells were used in the experiments. Introduction of tested compound (intraperitoneally […], daily during 21 days) was started in 8 days after transplantation of tumour (an average size of tumour is 60-140 mm^3). As a result of the tests it was shown that under the said way of introduction compounds III-1017 and III-1011 suppress tumour growth on 27 and 46% in comparison with the control group (mice with implanted tumour not treated with the tested compounds).

Smo receptors = target: T1, Smo receptors (Homo sapiens, UniProt Q99835); test: Displacement of bodipy-cyclopamine from Smo receptors in Smo-HEK cells; format: binding; conditions: half-maximal displacement of bodipy-cyclopamine
T1 construct: expressed in transfected cells; host or cells: HEK cells (Smo-HEK)
T1 sequence (Q99835 28-787): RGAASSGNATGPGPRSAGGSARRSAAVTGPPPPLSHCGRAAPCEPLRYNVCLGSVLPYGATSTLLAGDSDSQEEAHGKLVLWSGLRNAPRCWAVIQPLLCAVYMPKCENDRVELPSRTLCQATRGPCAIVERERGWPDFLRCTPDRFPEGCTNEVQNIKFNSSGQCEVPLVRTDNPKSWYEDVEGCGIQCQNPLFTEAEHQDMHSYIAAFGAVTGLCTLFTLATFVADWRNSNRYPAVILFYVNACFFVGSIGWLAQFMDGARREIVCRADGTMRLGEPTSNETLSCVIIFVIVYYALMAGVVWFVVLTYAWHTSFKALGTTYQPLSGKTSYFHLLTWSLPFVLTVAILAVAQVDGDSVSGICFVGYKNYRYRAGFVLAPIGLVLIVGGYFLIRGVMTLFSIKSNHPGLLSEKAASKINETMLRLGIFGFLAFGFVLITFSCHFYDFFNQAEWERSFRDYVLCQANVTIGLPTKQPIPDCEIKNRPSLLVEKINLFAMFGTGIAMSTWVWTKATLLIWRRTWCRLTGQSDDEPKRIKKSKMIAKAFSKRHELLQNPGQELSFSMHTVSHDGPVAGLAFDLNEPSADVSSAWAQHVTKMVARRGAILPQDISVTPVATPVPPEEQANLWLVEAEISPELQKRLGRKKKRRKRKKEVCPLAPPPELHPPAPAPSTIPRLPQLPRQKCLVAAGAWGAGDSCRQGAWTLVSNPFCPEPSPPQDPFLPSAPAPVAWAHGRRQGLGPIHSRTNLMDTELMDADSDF
Experimental: Binding parameters to Smo receptors for some of compounds of the general formulas I-VIII are presented in table 11 as the values of half-maximal displacement of cyclopamine labelled with fluorescent dye (bodipy-cyclopamine). The tests were carried out for Smo-HEK cells, comprising artificially expressed protein Smo.

IC50 (Hh-signalling cascade): < 500 nM
melting point: 203 to 205 °C
Compound: CCOc1ccc(NC(=O)c2ccnc(N3CCC(C(=O)NCCCc4ccccc4)CC3)c2)cc1 [VI-1001, 3,4,5,6-Tetrahydro-2H-[1,2]bipyridinyl-4,4′-carboxylic acid 4′-[(4-ethoxyphenyl)amide] 4-[(3-phenylpropyl)amide]]

IC50 (Hh-signalling cascade): < 5000 nM
melting point: 235 to 237 °C
Compound: CCOc1ccc(NC(=O)c2ccnc(N3CCC(C(=O)Nc4ccc(C)c(C)c4)CC3)c2)cc1 [VI-1002, 3,4,5,6-Tetrahydro-2H-[1,2′]bipyridinyl-4,4′-carboxylic acid 4-[(3,4-dimethylphenyl)amide] 4′-[(4-ethoxyphenyl)amide]]

IC50 (Hh-signalling cascade): < 5000 nM
melting point: 250 to 252 °C
Compound: CCOc1ccc(NC(=O)c2ccnc(N3CCC(C(=O)Nc4cc(C)cc(C)c4)CC3)c2)cc1 [VI-1003, 3,4,5,6-Tetrahydro-2H-[1,2′]bipyridinyl-4,4′-carboxylic acid 4-[(3,5-dimethylphenyl)amide] 4′-[(4-ethoxyphenyl)amide]]

IC50 (Hh-signalling cascade): < 5000 nM
melting point: 200 to 202 °C
Compound: CCOc1ccc(NC(=O)c2ccnc(N3CCC(C(=O)Nc4cccc(SC)c4)CC3)c2)cc1 [VI-1004]

IC50 (Hh-signalling cascade): < 5000 nM
melting point: 243 to 245 °C
Compound: CCOc1ccc(NC(=O)c2ccnc(N3CCC(C(=O)Nc4ccc(C(C)C)cc4)CC3)c2)cc1 [VI-1005, 3,4,5,6-Tetrahydro-2H-[1,2′]bipyridinyl-4,4′-carboxylic acid 4′-[(4-ethoxyphenyl)amide] 4-[(4-isopropylphenyl)amide]]

IC50 (Hh-signalling cascade): < 5000 nM
melting point: 182 to 184 °C
Compound: CCOc1ccc(NC(=O)c2ccnc(N3CCC(C(=O)Nc4ccccc4OC)CC3)c2)cc1 [VI-1006, 3,4,5,6-Tetrahydro-2H-[1,2′]bipyridinyl-4,4′-carboxylic acid 4′-[(4-ethoxyphenyl)amide] 4-[(2-methoxyphenyl)amide]]

IC50 (Hh-signalling cascade): < 500 nM
melting point: 252 to 255 °C
Compound: Cc1ccc(S(=O)(=O)N2CCCc3cc(C(=O)Nc4c(C)cc(C)cc4C)ccc32)cc1 [VII-1001, 1-Tosyl-1,2,3,4-tetrahydroquinoline-6-carboxylic acid (2,4,6-mesityl)amide]
Suppression of Gli1 expression (HGli mRNA) [3]: block effectively Hh-signalling cascade

Further lines, the compound ahead of its results:

Compound: COc1cccc(N2CCN(C(=O)Cn3nc(C)c4c(C)n(-c5ccccc5)nc4c3=O)CC2)c1 [I-1001, 2-Phenyl-3,4-dimethyl-6-{2-[4-(3-methoxyphenyl)piperazin-1-yl]-2-oxoethyl}-2,6-dihydro-7H-pyrazolo[3,4-d]pyridazin-7-one]
IC50 (Hh-signalling cascade): < 500 nM
half-life ([1]; PO, 5 mg/Kg): 2.08 h
Cmax ([1]; PO, 20 mg/Kg): 4460 ng/mL
MTD at 5 days [2]: > 200 mg/kg
Suppression of Gli1 expression (HGli mRNA) [3]: block effectively Hh-signalling cascade
bioavailability [4]: 35%

Compound: Cc1nn(C(C)C(=O)N2CCN(C3CCCCC3)CC2)c(=O)c2nn(-c3ccccc3)c(C)c12 (stereo not drawn) [I-1010, 2-Phenyl-3,4-dimethyl-6-{1-methyl-2-[4-cyclohexylpiperazin-1-yl]-2-oxoethyl}-2,6-dihydro-7H-pyrazolo[3,4-d]pyridazin-7-one]
IC50 (Hh-signalling cascade): < 500 nM
melting point: 132 to 135 °C

Compound: Cc1cccc(N2CCN(C(=O)C(C)n3nc(C)c4c(C)n(-c5ccccc5)nc4c3=O)CC2)c1C (stereo not drawn) [I-1011, 2-Phenyl-3,4-dimethyl-6-{1-methyl-2-[4-(2,3-dimethylphenyl)piperazin-1-yl]-2-oxoethyl}-2,6-dihydro-7H-pyrazolo[3,4-d]pyridazin-7-one]
IC50 (Hh-signalling cascade): < 500 nM
melting point: 136 to 138 °C

Compound: Cc1nn(C(C)C(=O)N2CCN(Cc3ccccc3)CC2)c(=O)c2nn(-c3ccccc3)c(C)c12 (stereo not drawn) [I-1012, 2-Phenyl-3,4-dimethyl-6-{1-methyl-2-[4-benzylpiperazin-1-yl]-2-oxoethyl}-2,6-dihydro-7H-pyrazolo[3,4-d]pyridazin-7-one]
IC50 (Hh-signalling cascade): < 500 nM
melting point: 152 to 154 °C

Compound: Cc1ccn2cc(-c3cccc(NC(=O)c4sc(-c5ccccc5)nc4C)c3)nc2c1 [III-1017, 4-Methyl-2-phenylthiazol-5-carboxylic acid [3-(7-methylimidazo[1,2-a]pyridin-2-yl)phenyl]amide]
IC50 (Hh-signalling cascade): < 500 nM
Cmax ([1]; IP, 5 mg/Kg): 357 ng/mL
half-life ([1]; IP, 5 mg/Kg): 1.12 h
Cmax ([1]; PO, 5 mg/Kg): 398 ng/mL
half-life ([1]; PO, 5 mg/Kg): 0.917 h
MTD at 5 days [2]: > 200 mg/kg
Suppression of tumour growth in comparison with the control group [5]: 27%
bioavailability [4]: 19%

Compound: O=C(c1cc2sccc2n1Cc1ccc(F)cc1)N1CCC(C(=O)N2CCOCC2)CC1 [V-1001, [4-(4-Fluorobenzyl)-4H-thieno[3,2-b]pyrrol-5-yl][4-(morpholine-4-carbonyl)piperidin-1-yl]methanone]
IC50 (Hh-signalling cascade): < 500 nM
melting point: 120 to 122 °C

Compound: Cc1cc(C)cc(NC(=O)C2CCN(C(=O)c3cc4sccc4n3Cc3ccc(F)cc3)CC2)c1 [V-1002, 1-[4-(4-Fluorobenzyl)-4H-thieno[3,2-b]pyrrole-5-carbonyl]piperidine-4-carboxylic acid (3,5-dimethylphenyl)amide]
IC50 (Hh-signalling cascade): < 500 nM
melting point: 203 to 205 °C

Compound: CN1CCN(C(=O)C2CCN(C(=O)c3cc4sccc4n3Cc3ccc(Cl)cc3)CC2)CC1 [V-1017, [4-(4-Chlorobenzyl)-4H-thieno[3,2-b]pyrrol-5-yl][4-(4-methylpiperazine-1-carbonyl)-piperidin-1-yl]methanone]
IC50 (Smo receptors): 40 nM
Cmax ([1]; IP, 5 mg/Kg): 289 ng/mL
half-life ([1]; IP, 5 mg/Kg): 1.13 h
Cmax ([1]; PO, 20 mg/Kg): 758 ng/mL
half-life ([1]; PO, 20 mg/Kg): 2.28 h
MTD at 5 days [2]: > 200 mg/kg
bioavailability [4]: 63%

Compound: O=C(c1cc2sccc2n1Cc1ccc(Cl)cc1)N1CCC(C(=O)N2CCCCCC2)CC1 [V-1043, 1-[4-(4-Chlorobenzyl)-4H-thieno[3,2-b]pyrrole-5-carbonyl]piperidine-4-carboxylic acid hexamethylene amide]
IC50 (Hh-signalling cascade): < 5000 nM
IC50 (Smo receptors): 69 nM
Cmax ([1]; IP, 5 mg/Kg): 167 ng/mL
half-life ([1]; IP, 5 mg/Kg): 1.07 h
Cmax ([1]; PO, 5 mg/Kg): 71 ng/mL
MTD at 5 days [2]: > 200 mg/kg
bioavailability [4]: 3%

Compound: CN1CCc2c(sc(NC(=O)C3CCCCC3)c2-c2nc3ccccc3s2)C1.Cl [VIII-1001, Cyclohexanecarboxylic acid (3-benzo[d]thiazol-2-yl-6-methyl-4,5,6,7-tetrahydrothieno[2,3-c]pyridin-2-yl)amide]
IC50 (Hh-signalling cascade): < 500 nM
Cmax ([1]; IP, 100 mg/Kg): 45 ng/mL
half-life ([1]; IP, 100 mg/Kg): 4.9 h
MTD at 5 days [2]: > 100 mg/kg
